Laboratory results reported in patent publication US20100298137A1, “ACTIVE INGREDIENT COMBINATIONS WITH INSECTICIDAL PROPERTIES” (BAYER CROPSCIENCE AG, priority 2006, published 2010).

Experiments:
[1] = tested on: Myzus persicae; experiment: Myzus persicae test (cabbage leaves dipped into the preparation of active compound); format: in vivo; conditions: leaf dip
Description: (§1) The expected activity for a given combination of two active compounds can be calculated according to S. R. Colby, Weeds 15 (1967), 20-22 as follows:
(§2) If • X is the kill rate, expressed in % of the untreated control, when active compound A is applied at an application rate of m g/ha or at a concentration of m ppm, • Y is the kill rate, expressed in % of the untreated control, when active compound B is applied at an application rate of n g/ha or at a concentration of n ppm and • E is the kill rate, expressed in % of the untreated control, when active compounds A and B is applied at application rates of m and n g/ha or at a concentration of m and n ppm, then
(§3) If the actual kill rate is greater than calculated, the kill of the combination is superadditive, i.e. there is a synergistic effect. In this case, the actual observed kill rate has to be greater than the value for the expected kill rate (E) calculated from the formula given above.
(§4) To produce a suitable preparation of active compound, 1 part by weight of active compound is mixed with the stated amounts of solvent and emulsifier, and the concentrate is diluted with emulsifier-containing water to the desired concentration.
Cabbage leaves (Brassica oleracea) which are heavily infested by the green peach aphid (Myzus persicae) are treated by being dipped into the preparation of active compound of the desired concentration.
(§5) After the desired period of time, the kill in % is determined. 100% means that all aphids have been killed; 0% means that none of the aphids have been killed. The kill rates determined are entered into the Colby formula (see sheet 1).

[2] = tested on: Aphis gossypii; experiment: Aphis gossypii test (cotton leaves dipped into the preparation of active compound); format: in vivo; conditions: leaf dip
Description: as §1, §2, §3, §4
Cotton leaves (Gossypium hirsutum) which are heavily infested by the cotton aphid (Aphis gossypii) are treated by being dipped into the preparation of active compound of the desired concentration.
as §5

## COc1cccc(C(=O)NN(C(=O)c2cc(C)cc(C)c2)C(C)(C)C)c1C [methoxyfenozide]
[1]; 100 ppm
  Kill in % after 1 d: 0%
[2]; 100 ppm
  Kill in % after 1 d: 0%

## CC(C)N1C(=O)N(c2ccccc2)CS/C1=N\C(C)(C)C [buprofezin]
[1]; 100 ppm
  Kill in % after 1 d: 0%
[2]; 100 ppm
  Kill in % after 1 d: 5%

## emamectin benzoate
[2]; 20 ppm
  Kill in % after 1 d: 10%

## N#Cc1nn(-c2c(Cl)cc(C(F)(F)F)cc2Cl)c(N)c1[S+]([O-])C(F)(F)F (centres unmarked) [fipronil]
[1]; 4 ppm
  Kill in % after 6 d: 0%
[2]; 20 ppm
  Kill in % after 6 d: 70%

## O=C1C=C(N(Cc2ccc(Cl)nc2)C2CC2)CO1 [compound (Ib)]
[1]; 0.16 ppm
  Kill in % after 6 d: 0%
[1]; 0.8 ppm
  Kill in % after 1 d: 10%
[1]; 4 ppm
  Kill in % after 1 d: 70%
  Kill in % after 6 d: 33%
[2]; 0.16 ppm
  Kill in % after 6 d: 0%
[2]; 0.8 ppm
  Kill in % after 1 d: 45%
  Kill in % after 6 d: 50%
[2]; 4 ppm
  Kill in % after 1 d: 80%

## CC[S+]([O-])c1c(C#N)nn(-c2c(Cl)cc(C(F)(F)F)cc2Cl)c1N (centres unmarked) [ethiprole]
[2]; 0.8 ppm
  Kill in % after 6 d: 30%

## CN(Cc1ccc(Cl)nc1)C1=CC(=O)OC1 [compound (Ia)]
[1]; 0.16 ppm
  Kill in % after 1 d: 10%
  Kill in % after 6 d: 0%
[1]; 0.8 ppm
  Kill in % after 1 d: 45%
  Kill in % after 6 d: 50%
[2]; 0.16 ppm
  Kill in % after 1 d: 20%
[2]; 0.8 ppm
  Kill in % after 1 d: 55%

## Cc1cc(C(F)(C(F)(F)F)C(F)(F)F)ccc1NC(=O)c1cccc(I)c1C(=O)NC(C)(C)CS(C)(=O)=O [flubendiamid, flubendiamide]
[1]; 100 ppm
  Kill in % after 6 d: 6%

## spinosad
[1]; 100 ppm
  Kill in % after 1 d: 5%
  Kill in % after 6 d: 5%

## COC(=O)N(C(=O)N1COC2(C(=O)OC)Cc3cc(Cl)ccc3C2=N1)c1ccc(OC(F)(F)F)cc1 (centres unmarked) [indoxacarb]
[1]; 100 ppm
  Kill in % after 6 d: 20%
[2]; 100 ppm
  Kill in % after 1 d: 0%

## CNC(=O)c1cc(Cl)cc(C)c1NC(=O)c1cc(Br)nn1-c1ncccc1Cl [rynaxapyr, 3-bromo-N-{4-chloro-2-methyl-6-[(methylamino)carbonyl]phenyl}-1-(3-chloropyridin-2-yl)-1H-pyrazole-5-carboxamide]
[1]; 4 ppm
  Kill in % after 1 d: 30%
[2]; 0.8 ppm
  Kill in % after 6 d: 15%

## abamectin
[1]; 100 ppm
  Kill in % after 1 d: 55%

## FC(F)(F)c1ccc(OCCCOc2c(Cl)cc(OCC=C(Cl)Cl)cc2Cl)nc1 [pyridalyl]
[1]; 100 ppm
  Kill in % after 6 d: 0%
[2]; 100 ppm
  Kill in % after 1 d: 5%
